Assay results taken from PubChem BioAssay AID330 (DTP/NCI, 2004).
Where “and” joins values, the source holds several entries; their conditions need not be identical. Identical values can stand only once. Toxic doses and inconclusive results are not listed. How the source made its calls: active means survival T/C of 150% or more; inactive means T/C below 125% in these data.

Test system: P388 leukemia ip, CD2F1 mice, survival T/C
Assay: NCI In Vivo Anticancer Drug Screen. Data for tumor model P388 Leukemia (intraperitoneal) in CD2F1 (CDF1) mice
Details: endpoint: median survival time, higher = longer survival
Procedure, shortened: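 Mice carrying the transplanted tumor received test compound or vehicle. Survival was recorded in each group, and the value is the treated-group measurement divided by that of the vehicle-treated control group.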

[1] = dose: 50.0 mg/kg/injection, schedule: Q01DX005 (ip), vehicle: saline with Tween-80
[2] = dose: 100.0 mg/kg/injection, schedule: Q01DX005 (ip), vehicle: saline with Tween-80
[3] = dose: 200.0 mg/kg/injection, schedule: Q01DX005 (ip), vehicle: saline with Tween-80
[4] = dose: 50.0 mg/kg/injection, schedule: Q01DX005 (ip), vehicle: Klucel (hydroxypropylcellulose) (HPC)
[5] = dose: 100.0 mg/kg/injection, schedule: Q01DX005 (ip), vehicle: Klucel (hydroxypropylcellulose) (HPC)
[6] = dose: 200.0 mg/kg/injection, schedule: Q01DX005 (ip), vehicle: Klucel (hydroxypropylcellulose) (HPC)
[7] = dose: 60.0 mg/kg/injection, schedule: Q01DX005 (ip), vehicle: saline with Tween-80
[8] = dose: 120.0 mg/kg/injection, schedule: Q01DX005 (ip), vehicle: saline with Tween-80
[9] = dose: 240.0 mg/kg/injection, schedule: Q01DX005 (ip), vehicle: saline with Tween-80
[10] = dose: 100.0 mg/kg/injection, schedule: Q04DX003 (ip), vehicle: Klucel (hydroxypropylcellulose) (HPC)
[11] = dose: 200.0 mg/kg/injection, schedule: Q04DX003 (ip), vehicle: Klucel (hydroxypropylcellulose) (HPC)
[12] = dose: 12.5 mg/kg/injection, schedule: Q01DX005 (ip), vehicle: saline
[13] = dose: 25.0 mg/kg/injection, schedule: Q01DX005 (ip), vehicle: saline
[14] = dose: 50.0 mg/kg/injection, schedule: Q01DX005 (ip), vehicle: saline
[15] = dose: 100.0 mg/kg/injection, schedule: Q04DX002 (ip), vehicle: saline with Tween-80

Measured: T/C

CCCCCCC(/C=C/c1ccc(Cl)c(Cl)c1)=N\NC(N)=S
inactive: dose: 50.0 mg/kg/injection, schedule: Q01DX009 (ip), vehicle: saline 105 % of control | dose: 100.0 mg/kg/injection, schedule: Q01DX009 (ip), vehicle: saline 106 % of control | dose: 200.0 mg/kg/injection, schedule: Q01DX009 (ip), vehicle: saline 107 % of control

O=C1C(=O)N(c2ccccc2)[C@]2(c3ccccc3)C1=C(c1ccccc1)N(c1ccccc1)C(=O)N2c1ccccc1
inactive: [1] 97 % of control | [2] 88 % of control | [3] 88 % of control

O=[N+]([O-])c1ccc(SC2=NCCCN2C2CCCCC2)c(Cl)c1
inactive: [4] 97 % of control | [5] 100 % of control | [6] 103 % of control

COc1cc(/C=N/NC(=O)COc2ccccc2)ccc1O
inactive: [7] 100 % of control | [8] 103 % of control | [9] 98 % of control

COc1ccc2[nH]c(=O)c(COC(C)=O)c(COC(C)=O)c2c1
inactive: [4] 87 % of control | [5] 87 % of control | [6] 97 % of control

COc1ccc(/C=C(/C#N)c2ccccc2)cc1
inactive: dose: 100.0 mg/kg/injection, schedule: Q04DX003 (ip), vehicle: other 100 % of control | dose: 200.0 mg/kg/injection, schedule: Q04DX003 (ip), vehicle: other 100 % of control | dose: 400.0 mg/kg/injection, schedule: Q04DX003 (ip), vehicle: other 104 % of control

O=C1CCC2CCc3ccccc3N12 (stereo not drawn)
inactive: dose: 100.0 mg/kg/injection, schedule: Q04DX002 (ip), vehicle: other 102 % of control | dose: 200.0 mg/kg/injection, schedule: Q04DX002 (ip), vehicle: other 96 % of control | dose: 400.0 mg/kg/injection, schedule: Q04DX002 (ip), vehicle: other 103 % of control

O=C1CSC(c2ccc([N+](=O)[O-])cc2[N+](=O)[O-])N1c1nncs1 (stereo not drawn)
inactive: [1] 95 % of control | [2] 95 % of control | [3] 95 % of control

NS(=O)(=O)c1cc2c(cc1Cl)NC=NS2(=O)=O
inactive: dose: 18.75 mg/kg/injection, schedule: Q01DX009 (ip), vehicle: Klucel (hydroxypropylcellulose) (HPC) 100 % of control and 103 % of control | dose: 37.5 mg/kg/injection, schedule: Q01DX009 (ip), vehicle: Klucel (hydroxypropylcellulose) (HPC) 104 % of control and 91 % of control | dose: 75.0 mg/kg/injection, schedule: Q01DX009 (ip), vehicle: Klucel (hydroxypropylcellulose) (HPC) 104 % of control and 89 % of control | dose: 150.0 mg/kg/injection, schedule: Q01DX009 (ip), vehicle: Klucel (hydroxypropylcellulose) (HPC) 104 % of control and 90 % of control | dose: 225.0 mg/kg/injection, schedule: Q01DX009 (ip), vehicle: Klucel (hydroxypropylcellulose) (HPC) 99 % of control and 100 % of control

O=P1(NCCCNP2(=O)OC(CCl)=NC2c2ccccc2Cl)OC(CCl)=NC1c1ccccc1Cl (stereo not drawn)
inactive: dose: 60.0 mg/kg/injection, schedule: Q01DX005 (ip), vehicle: saline 93 % of control | dose: 120.0 mg/kg/injection, schedule: Q01DX005 (ip), vehicle: saline 98 % of control | dose: 240.0 mg/kg/injection, schedule: Q01DX005 (ip), vehicle: saline 103 % of control

NS(=O)(=O)c1ccc(Nc2c3ccccc3nc3ccccc23)cc1
inactive: [10] 110 % of control and 86 % of control (2×) | dose: 118.0 mg/kg/injection, schedule: Q04DX003 (ip), vehicle: Klucel (hydroxypropylcellulose) (HPC) 93 % of control | [11] 118 % of control and 90 % of control | dose: 236.0 mg/kg/injection, schedule: Q04DX003 (ip), vehicle: Klucel (hydroxypropylcellulose) (HPC) 99 % of control | dose: 400.0 mg/kg/injection, schedule: Q04DX003 (ip), vehicle: Klucel (hydroxypropylcellulose) (HPC) 120 % of control and 88 % of control and 95 % of control | dose: 472.0 mg/kg/injection, schedule: Q04DX003 (ip), vehicle: Klucel (hydroxypropylcellulose) (HPC) 99 % of control

NNC(=O)CCc1c[nH]c2ccccc12
inactive: dose: 50.0 mg/kg/injection, schedule: Q01DX001 (ip), vehicle: saline with Tween-80 100 % of control | dose: 100.0 mg/kg/injection, schedule: Q01DX001 (ip), vehicle: saline with Tween-80 96 % of control | dose: 200.0 mg/kg/injection, schedule: Q01DX001 (ip), vehicle: saline with Tween-80 111 % of control | dose: 400.0 mg/kg/injection, schedule: Q01DX001 (ip), vehicle: saline with Tween-80 111 % of control

Nc1ccc2c(SCCSc3c4ccccc4nc4cc(N)ccc34)c3ccccc3nc2c1
inactive: [7] 97 % of control | [8] 100 % of control

CCN(CC)CCCNC(=O)c1noc2cc([N+](=O)[O-])ccc12
inactive: [12] 113 % of control | [13] 105 % of control | [14] 99 % of control

CCC1(CC)CC1C(=O)O (stereo not drawn)
inactive: [4] 93 % of control | [5] 89 % of control | [6] 89 % of control

Cc1ccc(NCC2CCCN3CCCCC23)c2c(=O)c3cc(O)ccc3sc12 (stereo not drawn)
inactive: [15] 97 % of control | dose: 200.0 mg/kg/injection, schedule: Q04DX002 (ip), vehicle: saline with Tween-80 102 % of control

CC(=O)N1CCc2ccccc2C1C1NCCc2ccccc21 (stereo not drawn)
inactive: [10] 95 % of control | [11] 94 % of control

C=C(C(=O)O)S(=O)(=O)O
inactive: dose: 7.5 mg/kg/injection, schedule: Q01DX009 (ip), vehicle: saline with Tween-80 102 % of control | dose: 15.0 mg/kg/injection, schedule: Q01DX009 (ip), vehicle: saline with Tween-80 110 % of control | dose: 30.0 mg/kg/injection, schedule: Q01DX009 (ip), vehicle: saline with Tween-80 114 % of control

C/C=C(\C)C(=O)OCC1(C)C(OC(=O)/C(C)=C/C)CCC2(C)C3C(=O)C=C(C)C2C31 (stereo not drawn)
inactive: dose: 25.0 mg/kg/injection, schedule: Q04DX002 (ip), vehicle: saline with Tween-80 110 % of control | dose: 50.0 mg/kg/injection, schedule: Q04DX002 (ip), vehicle: saline with Tween-80 94 % of control | [15] 97 % of control

COC(=O)c1ccccc1S(=O)(=O)NC(C)C
inactive: [4] 99 % of control | [5] 96 % of control | [6] 105 % of control

C/C=C/c1cc(OC)c2c(c1)[C@H](C)C(c1ccc(O)c(OC)c1)O2 (stereo partly drawn)
inactive: dose: 37.5 mg/kg/injection, schedule: Q01DX005 (ip), vehicle: Klucel (hydroxypropylcellulose) (HPC) 106 % of control | dose: 75.0 mg/kg/injection, schedule: Q01DX005 (ip), vehicle: Klucel (hydroxypropylcellulose) (HPC) 97 % of control | dose: 150.0 mg/kg/injection, schedule: Q01DX005 (ip), vehicle: Klucel (hydroxypropylcellulose) (HPC) 95 % of control

C[N+](C)(C)CCNP(=O)(Oc1ccccc1)c1ccccc1 (stereo not drawn)
inactive: [1] 103 % of control | [2] 94 % of control

CN1C(=O)C(=N[O-])C(=O)N(C)C1=O.CN1C(=O)C(=N[O-])C(=O)N(C)C1=O.CN1C(=O)C(=N[O-])C(=O)N(C)C1=O.[Co+3]
inactive: [1] 100 % of control | [2] 119 % of control | [3] 107 % of control

CN1CC2(CO)C(c3ccccc3)OC(c3ccccc3)C(CO)(C1)C2O (stereo not drawn)
inactive: [7] 104 % of control and 100 % of control | [8] 107 % of control and 100 % of control | [9] 96 % of control

C[N+](C)(Cc1ccccc1)[N-]C(=N)c1ccccc1
inactive: dose: 12.5 mg/kg/injection, schedule: Q04DX003 (ip), vehicle: Klucel (hydroxypropylcellulose) (HPC) 105 % of control | dose: 25.0 mg/kg/injection, schedule: Q04DX003 (ip), vehicle: Klucel (hydroxypropylcellulose) (HPC) 101 % of control | dose: 50.0 mg/kg/injection, schedule: Q04DX003 (ip), vehicle: Klucel (hydroxypropylcellulose) (HPC) 100 % of control | [10] 103 % of control

N=C(N)N=Nc1cc(O)c(NN=C(N)N)cc1O
inactive: dose: 1.56 mg/kg/injection, schedule: Q01DX005 (ip), vehicle: saline with Tween-80 102 % of control | dose: 3.13 mg/kg/injection, schedule: Q01DX005 (ip), vehicle: saline with Tween-80 99 % of control | dose: 6.25 mg/kg/injection, schedule: Q01DX005 (ip), vehicle: saline with Tween-80 102 % of control

COC(=O)C(C)CC(C)(CC(C)(CC(C)(C)C(=O)OC)C(=O)OC)C(=O)OC (stereo not drawn) (tested in a mixture with another compound)
inactive: [7] 100 % of control | [8] 96 % of control | [9] 100 % of control

COc1cc2c(cc1OC)C13CCN4CC5=CCOC6CC(=O)N2C1C6C5C3C4 (stereo not drawn) (tested in a mixture with another compound)
inactive: [12] 90 % of control | [13] 95 % of control | [14] 98 % of control

CCOC(=O)C(C(=O)OCC)(C(=O)C(F)(F)C(F)(F)C(F)(F)C(F)(F)C(=O)C(C(=O)OCC)(C(=O)OCC)c1ccccc1)c1ccccc1
inactive: [7] 93 % of control | [8] 98 % of control | [9] 89 % of control

N#CC1=C(O)/C(=C\c2ccc(Cl)c(Cl)c2)N=C1N
inactive: [1] 89 % of control | [2] 90 % of control | [3] 97 % of control
